A short description of data set [1]: in vitro. The settings on record: human, uninfected MT-4 cells, CC50 (nM), same protocol as Test A, CellTiter-Glo. In outline: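 Cytoprotection read-out: CellTiter-Glo chemiluminescence after 5 days at 37 °C of HIV-IIIb-infected MT-4 cells (m.o.i. 0.003) with compound in 10-point 3-fold dilutions, quadruplicate, 10% FBS. Cytotoxicity (CC50) measured identically without virus.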
(ATP-based viability assays read luminescence as a measure of living cells.)

Data set [2] has as its system HIV-IIIb. Kind of data set: Test A: Antiviral assay in MT4 cells. Format: cell-based, HIV-1. The following applies: Human immunodeficiency virus 1, IIIB, MT4, 120 h, read-out: % inhibition at 2 μM, percent inhibition of virus-induced cell killing, from dose response curve at 2 uM drug; MT-4 cells infected with HIV-IIIb, 5 days, CellTiter-Glo.

Results on 9 compounds are retold here after patent publication US9540343B2 (Gilead Sciences, Inc., priority 2011, dated 2017).

One may read the CC50 as the concentration that lowers cell viability or growth by half. As a reminder, the inhibition is the percentage by which the read-out fell short of the control.

In data set [1], `Cc1c(C#N)c(C(F)(F)F)nn1CC(=O)N[C@@H](Cc1cc(F)cc(F)c1)c1ncccc1-c1ccc(F)c(C(N)=O)c1` [Example 376, (S)-5-(2-(1-(2-(4-cyano-5-methyl-3-(trifluoromethyl)-1H-pyrazol-1-yl)acetamido)-2-(3,5-difluorophenyl)ethyl)pyridin-3-yl)-2-fluorobenzamide] returned a CC50 at 5 days of 29100 nM. In addition, the inhibition at 2 µM in data set [2] worked out at 2%.
In data set [1], `Nc1cc(-c2cccnc2[C@H](Cc2cc(F)cc(F)c2)NC(=O)Cc2c[nH]c3ccc(F)cc23)ccc1F` [Example 470, (S)—N-(1-(3-(3-amino-4-fluorophenyl)pyridin-2-yl)-2-(3,5-difluorophenyl)ethyl)-2-(5-fluoro-1H-indol-3-yl)acetamide] yielded a CC50 at 5 days of 20800 nM. For the same compound, the inhibition at 2 µM in data set [2] was 68%.
The corresponding values for `O=C(Cc1c[nH]c2ccc(F)cc12)N[C@@H](Cc1cc(F)cc(F)c1)c1ncccc1-c1ccc2nonc2c1` [Example 441, (S)—N-(1-(3-(benzo[c][1,2,5]oxadiazol-5-yl)pyridin-2-yl)-2-(3,5-difluorophenyl)ethyl)-2-(5-fluoro-1H-indol-3-yl)acetamide] are 8650 nM and 35%.
In turn, `CC(C)CC(C(=O)N[C@@H](Cc1cc(F)cc(F)c1)c1ncccc1-c1ccc(F)c(C(N)=O)c1)n1ccc(C(F)(F)F)n1` (single isomer, unassigned) [Example 581D] returned a CC50 at 5 days in data set [1] of 10600 nM. Moreover, in data set [2], the inhibition at 2 µM turned out to be 6%.
In data set [1], `Cc1nn(CC(=O)N[C@@H](Cc2cc(F)cc(F)c2)c2ncccc2-c2cccc(C(N)=O)c2)c2cc(O)ccc12` [Example 306C, (S)-3-(2-(2-(3,5-difluorophenyl)-1-(2-(6-hydroxy-3-methyl-1H-indazol-1-yl)acetamido)ethyl)pyridin-3-yl)benzamide] showed a CC50 at 5 days of 41600 nM. The inhibition at 2 µM in data set [2] turned out to be 10%.
With `Cc1ccc2cc(-c3cccnc3[C@H](Cc3cc(F)cc(F)c3)NC(=O)Cn3nc(C(F)F)c4c3C(F)(F)C3CC43)ccc2n1` (stereo partly drawn) [Example 75, (S)—N-(1-(3-(2-methylquinoline-6-yl)-pyridin-2-yl)-2-(3,5-difluorophenyl)ethyl)-2-(3-(difluoromethyl)-5,6-dihydro-4,5-(methano)-6,6-difluoro-cyclopenta[c]pyrazol-1(4H)-yl)acetamide], the CC50 at 5 days in data set [1] turned out to be 10700 nM. For the same compound, the inhibition at 2 µM in data set [2] worked out at 17%.
In data set [1], `NC(=O)c1cc(-c2cccnc2[C@H](Cc2cccc(F)c2)NC(=O)Cn2nc(C(F)(F)F)cc2Br)ccc1F` [Example 222B, (S)-5-(2-(1-(2-(5-bromo-3-(trifluoromethyl)-1H-pyrazol-1-yl)acetamido)-2-(3-fluorophenyl)ethyl)pyridin-3-yl)-2-fluorobenzamide] came in with a CC50 at 5 days of 25600 nM. Further, in data set [2], the inhibition at 2 µM was 21%.
As to `NC(=O)c1cc(-c2cncnc2[C@H](Cc2cc(F)cc(F)c2)NC(=O)Cn2nc(C(F)F)c3c2C(F)(F)C2CC32)ccc1F` (stereo partly drawn) [Example 180, 5-(4-((1S)-1-(2-(3-(difluoromethyl)-5,5-difluoro-3b,4,4a,5-tetrahydro-1H-cyclopropa[3,4]cyclopenta[1,2-c]pyrazol-1-yl)acetamido)-2-(3,5-difluorophenyl)ethyl)pyrimidin-5-yl)-2-fluorobenzamide], the CC50 at 5 days in data set [1] was greater than 50400 nM. In data set [2], the inhibition at 2 µM worked out at 93%.
The compound `CC(C)Oc1ccc(-c2cccnc2[C@H](Cc2cc(F)cc(F)c2)NC(=O)Cn2nc(C(F)F)c3c2C(F)(F)C2CC32)cc1` (stereo partly drawn) [Example 224, 2-(3-(difluoromethyl)-5,5-difluoro-3b,4,4a,5-tetrahydro-1H-cyclopropa[3,4]cyclopenta[1,2-c]pyrazol-1-yl)-N—((S)-2-(3,5-difluorophenyl)-1-(3-(4-isopropoxyphenyl)pyridin-2-yl)ethyl)acetamide] had a CC50 at 5 days in data set [1] of 20400 nM. Further, the inhibition at 2 µM in data set [2] is 17%.
